Data published in ChEMBL document CHEMBL1201862, “PubChem BioAssay data set” (2004).
Active and inactive are the calls of the source.

Columns and labels:
cells [1] = assay: cells
[2] = HEp-2 cell cytotoxicity, dose response, cytotoxicity control for RSV inhibitor project, HTS (AID 2410); format: functional; settings: human respiratory syncytial virus
H9c2 = assay: cells; format: functional, cell-based; settings: Rattus norvegicus, H9c2, Myocardium
[3] = luciferase reporter signal reduction – luminescence, H4-C neuroglioblastoma cells, dose response (AID 2458); format: functional, cell-based;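 also: H4 neuroglioblastoma cells stably carrying a luciferase reporter gene fusion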
[4] = inhibitors of SNCA 5'UTR-driven reporter translation, confirmation, H4 neuroglioma cells, luminescence (AID 1988); format: functional, cell-based
[5] = cytotoxicity in HEK-293T cells, dose response, cytotoxicity control for TCR NF-kB inhibitor project, luminescence, T-cell screen hits (AID 489026); format: functional, cell-based;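 also: cells exposed to compound about 14 hours before the viability readout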
[6] = Luminescence-based dose response cell-based high throughput screening assay for cytotoxic compounds using the IEC-6 intestinal epithelial cell line. [Related pubchem assays: 1858 (Summary AID.), 1825 (Counterscreen.), 1907 (Confirmation screen.)]; format: functional
cells [7] = format: functional, cell-based
[8] = inhibitors of firefly luciferase expression or activity, dose response, H4 neuroglioma cells, luminescence (AID 1990); format: functional, cell-based
[9] = inhibitors of SNCA 5'UTR-driven translation, confirmation, luminescence, H4 neuroglioblastoma cells, dose confirmation (AID 2454); format: functional, cell-based;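 also: H4 neuroglioblastoma cells carrying an alpha-synuclein 5'UTR luciferase reporter; potency for inhibition of the luciferase signal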
[10] = microbe, parasite or virus in culture; format: functional; settings: Mycobacterium tuberculosis
[11] = M. tuberculosis growth inhibition, HTS (AID 449762); format: functional
Mu-type opioid receptor = Mu-type opioid receptor (Homo sapiens, UniProt P35372); format: functional, cell-based;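 also: U2OS cells with beta-arrestin recruitment to OPRM1 by beta-gal complementation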
Mu-type opioid receptor, sequence (P35372 whole entry): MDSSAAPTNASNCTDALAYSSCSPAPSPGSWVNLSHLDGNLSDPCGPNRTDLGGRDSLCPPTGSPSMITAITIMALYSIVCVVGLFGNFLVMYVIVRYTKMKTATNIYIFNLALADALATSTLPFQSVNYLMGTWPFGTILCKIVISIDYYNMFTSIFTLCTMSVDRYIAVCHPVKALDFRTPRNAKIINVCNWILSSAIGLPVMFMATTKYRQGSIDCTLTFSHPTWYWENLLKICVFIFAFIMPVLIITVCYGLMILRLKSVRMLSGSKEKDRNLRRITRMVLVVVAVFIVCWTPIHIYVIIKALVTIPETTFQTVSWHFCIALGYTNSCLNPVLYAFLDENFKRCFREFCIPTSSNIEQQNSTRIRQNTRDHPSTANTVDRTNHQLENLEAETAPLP

[12] = target: 5-hydroxytryptamine receptor 2A (Mus musculus, UniProt P35363); format: functional, cell-based;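 also: CHO-K1 cells with tagged receptor and beta-arrestin; agonist potency measured as compound-induced activation of the receptor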
5-hydroxytryptamine receptor 2A, sequence (P35363 whole entry): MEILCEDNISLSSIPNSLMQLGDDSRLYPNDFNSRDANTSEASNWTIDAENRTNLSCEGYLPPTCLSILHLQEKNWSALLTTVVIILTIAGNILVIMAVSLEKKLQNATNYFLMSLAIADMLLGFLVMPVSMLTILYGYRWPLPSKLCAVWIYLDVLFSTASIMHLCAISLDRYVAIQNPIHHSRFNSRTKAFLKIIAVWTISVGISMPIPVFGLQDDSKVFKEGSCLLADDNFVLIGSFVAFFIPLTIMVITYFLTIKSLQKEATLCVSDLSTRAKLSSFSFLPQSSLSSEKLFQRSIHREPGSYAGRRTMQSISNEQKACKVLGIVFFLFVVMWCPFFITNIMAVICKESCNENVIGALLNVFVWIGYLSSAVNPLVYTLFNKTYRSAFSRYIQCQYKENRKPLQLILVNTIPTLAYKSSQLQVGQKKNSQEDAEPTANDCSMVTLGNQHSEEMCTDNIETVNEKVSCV

Vero = assay: host cell cytotoxicity of antiviral hits, dose response, cytotoxicity control for West Nile virus antiviral project, secondary assay (AID 1650); format: functional; settings: Chlorocebus sabaeus
Cytochrome P450 3A4 = Cytochrome P450 3A4 (Homo sapiens, UniProt P08684);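 also: CYP3A4 tested as one member of a cytochrome P450 panel screen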
Cytochrome P450 3A4, sequence (P08684 whole entry): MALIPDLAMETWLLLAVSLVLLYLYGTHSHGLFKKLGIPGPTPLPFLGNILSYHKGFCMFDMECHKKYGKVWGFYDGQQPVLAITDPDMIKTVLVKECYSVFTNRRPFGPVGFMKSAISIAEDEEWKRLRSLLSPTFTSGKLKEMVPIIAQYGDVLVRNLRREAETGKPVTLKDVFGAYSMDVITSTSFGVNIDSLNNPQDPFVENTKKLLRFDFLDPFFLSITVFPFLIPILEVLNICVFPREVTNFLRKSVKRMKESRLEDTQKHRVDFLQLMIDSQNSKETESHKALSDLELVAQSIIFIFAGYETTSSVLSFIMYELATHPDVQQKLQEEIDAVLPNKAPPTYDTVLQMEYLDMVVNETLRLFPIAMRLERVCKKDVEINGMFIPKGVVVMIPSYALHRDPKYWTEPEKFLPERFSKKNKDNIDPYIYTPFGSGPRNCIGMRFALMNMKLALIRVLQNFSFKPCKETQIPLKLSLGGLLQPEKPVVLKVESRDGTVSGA

Cytochrome P450 2C19 = Cytochrome P450 2C19 (Homo sapiens, UniProt P33261); assay: Cytochrome panel assay with activity outcomes. Panel member name: p450-cyp2c19 Compounds with AC50 equal or less than 10 uM are considered active; format: functional; settings: read-out: AC50
Cytochrome P450 2C19, sequence (P33261 whole entry): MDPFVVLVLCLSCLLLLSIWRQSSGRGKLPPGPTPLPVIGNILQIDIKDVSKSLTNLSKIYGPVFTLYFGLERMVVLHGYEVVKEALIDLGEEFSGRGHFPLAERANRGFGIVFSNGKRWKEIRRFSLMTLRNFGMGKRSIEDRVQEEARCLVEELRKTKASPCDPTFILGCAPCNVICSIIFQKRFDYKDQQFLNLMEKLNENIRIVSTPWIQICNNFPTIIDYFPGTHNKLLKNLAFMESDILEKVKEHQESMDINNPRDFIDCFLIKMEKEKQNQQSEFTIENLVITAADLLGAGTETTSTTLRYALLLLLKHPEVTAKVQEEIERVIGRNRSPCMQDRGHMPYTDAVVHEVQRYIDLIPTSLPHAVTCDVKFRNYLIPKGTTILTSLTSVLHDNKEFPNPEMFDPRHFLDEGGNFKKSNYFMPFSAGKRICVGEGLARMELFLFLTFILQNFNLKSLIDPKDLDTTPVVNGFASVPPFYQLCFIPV

[13] = inhibitors of Bluetongue virus cytopathic effect, confirmation, arbovirus, BSR cells (AID 1250); format: functional;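 also: protection from viral cytopathic effect measured as cell viability by ATP luminescence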
Ephrin type-A receptor 4 = Ephrin type-A receptor 4 (Mus musculus, UniProt Q03137); assay: inhibitors of EphA4 binding to KYL peptide, primary screen, biochemical, colorimetric, mouse EphA4 (AID 689); format: functional
Ephrin type-A receptor 4, sequence (Q03137 whole entry): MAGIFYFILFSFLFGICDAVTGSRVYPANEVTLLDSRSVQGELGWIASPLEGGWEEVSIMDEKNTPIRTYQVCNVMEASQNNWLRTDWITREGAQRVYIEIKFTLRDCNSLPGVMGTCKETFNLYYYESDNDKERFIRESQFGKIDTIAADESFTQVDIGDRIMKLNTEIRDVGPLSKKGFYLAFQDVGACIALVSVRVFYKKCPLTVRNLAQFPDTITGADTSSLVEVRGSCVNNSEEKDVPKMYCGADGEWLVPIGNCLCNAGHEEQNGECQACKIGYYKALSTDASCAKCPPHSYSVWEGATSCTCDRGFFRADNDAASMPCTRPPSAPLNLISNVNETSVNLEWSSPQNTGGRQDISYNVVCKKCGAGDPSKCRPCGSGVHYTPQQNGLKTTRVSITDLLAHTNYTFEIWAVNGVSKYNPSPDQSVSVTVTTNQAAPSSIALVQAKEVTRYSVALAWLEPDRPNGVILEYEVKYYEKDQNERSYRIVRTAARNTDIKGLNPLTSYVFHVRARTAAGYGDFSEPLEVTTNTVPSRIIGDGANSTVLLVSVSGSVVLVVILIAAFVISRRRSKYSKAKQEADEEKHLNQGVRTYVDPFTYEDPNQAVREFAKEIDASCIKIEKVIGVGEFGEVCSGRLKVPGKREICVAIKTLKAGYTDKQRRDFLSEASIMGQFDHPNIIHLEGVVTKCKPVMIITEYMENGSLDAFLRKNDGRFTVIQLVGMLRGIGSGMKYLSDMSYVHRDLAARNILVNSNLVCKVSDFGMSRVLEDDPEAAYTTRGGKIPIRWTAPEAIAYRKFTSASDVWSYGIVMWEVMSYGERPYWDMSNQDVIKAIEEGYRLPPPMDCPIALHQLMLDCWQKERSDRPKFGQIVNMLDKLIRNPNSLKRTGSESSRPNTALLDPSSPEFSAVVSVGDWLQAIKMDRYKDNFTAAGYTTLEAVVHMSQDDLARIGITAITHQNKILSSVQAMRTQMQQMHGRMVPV

[14] = cytotoxicity toward NIH3T3 fibroblasts, dose response, counter-screen, cell-based, ATP luminescence, mouse fibroblasts (AID 2010); format: functional;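 also: cells exposed to compound for about 90 hours before reading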
cells [15] = assay: cells; remark: listed apart in the source
[16] = inhibitors of intracellular T. cruzi replication, confirmation, NIH3T3 host cells, beta-gal luminescence (AID 2044); format: functional, cell-based;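 also: intracellular parasites grown in NIH/3T3 mouse fibroblasts as host cells; luminescent beta-galactosidase reporter signal from transgenic T. cruzi replicating inside host cells; inhibitors lower the luminescence signal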
[17] = target: T1, Carboxy-terminal domain RNA polymerase II polypeptide A small phosphatase 1 (Homo sapiens, UniProt Q9GZU7); assay: inhibitors of CTDSP1, concentration-response testing, biochemical assay, absorbance-based, actives from ultra-high-throughput screening (AID 540297); format: functional
T1 sequence (Q9GZU7 whole entry): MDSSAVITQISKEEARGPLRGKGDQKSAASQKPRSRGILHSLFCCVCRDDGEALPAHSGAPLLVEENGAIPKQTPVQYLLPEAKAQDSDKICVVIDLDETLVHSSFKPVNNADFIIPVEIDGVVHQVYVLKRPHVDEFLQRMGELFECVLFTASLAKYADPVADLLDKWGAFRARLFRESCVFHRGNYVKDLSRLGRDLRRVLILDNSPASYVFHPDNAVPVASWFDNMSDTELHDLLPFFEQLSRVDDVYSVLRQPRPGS

Genome polyprotein = Genome polyprotein (Hepatitis C virus, UniProt Q2Q167); assay: HCV core protein dimerization inhibitors, dose response, biochemical, TR-FRET (AID 2159); set-up: species or system Hepacivirus hominis;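 also: blocks dimerization of HCV core protein measured by TR-FRET between tagged core106 pairs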
Genome polyprotein, sequence (Q2Q167 whole entry): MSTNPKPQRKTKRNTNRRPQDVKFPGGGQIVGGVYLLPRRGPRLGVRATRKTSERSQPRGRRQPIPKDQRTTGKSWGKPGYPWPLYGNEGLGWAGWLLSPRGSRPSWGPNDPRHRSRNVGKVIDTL

[18] = target: Induced myeloid leukemia cell differentiation protein Mcl-1 (Homo sapiens, UniProt Q07820); format: functional
Induced myeloid leukemia cell differentiation protein Mcl-1, sequence (Q07820 whole entry): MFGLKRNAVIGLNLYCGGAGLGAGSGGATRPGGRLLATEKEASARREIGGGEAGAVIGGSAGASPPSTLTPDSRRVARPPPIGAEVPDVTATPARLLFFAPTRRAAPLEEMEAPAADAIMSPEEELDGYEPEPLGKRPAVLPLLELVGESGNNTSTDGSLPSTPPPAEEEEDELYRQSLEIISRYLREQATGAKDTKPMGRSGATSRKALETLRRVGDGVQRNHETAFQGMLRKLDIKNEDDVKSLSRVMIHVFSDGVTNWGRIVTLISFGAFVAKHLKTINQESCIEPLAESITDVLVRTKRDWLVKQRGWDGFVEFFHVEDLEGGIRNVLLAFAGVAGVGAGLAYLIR

INS1 = assay: beta cell apoptosis inhibitors, cytokine rescue, dose response, luminescence, retest (AID 449756); format: functional, cell-based; settings: Rattus norvegicus;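 also: cell death triggered by IL-1 beta plus TNF-alpha plus IFN-gamma mixture; protective hits raise ATP signal compared with cytokine alone wells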
cells [19] = format: functional, cell-based; remark: listed apart in the source
[20] = target: T2, Intestinal-type alkaline phosphatase (Homo sapiens, UniProt P09923); assay: human IAP activators, dose response, biochemical, luminescent, uHTS hits, set 2 (AID 488817); format: functional;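 also: potency of activators that raise enzyme activity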
T2 sequence (P09923 whole entry): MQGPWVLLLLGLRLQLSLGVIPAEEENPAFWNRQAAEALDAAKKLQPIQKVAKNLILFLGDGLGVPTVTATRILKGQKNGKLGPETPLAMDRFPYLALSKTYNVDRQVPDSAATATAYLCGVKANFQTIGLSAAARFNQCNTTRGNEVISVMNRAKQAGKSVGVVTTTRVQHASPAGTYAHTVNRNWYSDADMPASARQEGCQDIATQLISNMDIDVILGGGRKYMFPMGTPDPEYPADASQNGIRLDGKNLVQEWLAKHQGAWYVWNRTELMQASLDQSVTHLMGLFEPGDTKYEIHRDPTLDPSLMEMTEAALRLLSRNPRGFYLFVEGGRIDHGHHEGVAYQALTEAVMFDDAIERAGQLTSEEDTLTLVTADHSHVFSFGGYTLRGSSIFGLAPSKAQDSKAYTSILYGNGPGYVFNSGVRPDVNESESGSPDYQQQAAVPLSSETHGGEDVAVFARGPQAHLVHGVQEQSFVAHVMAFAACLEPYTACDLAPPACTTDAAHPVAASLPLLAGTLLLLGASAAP

[21] = target: Intestinal-type alkaline phosphatase (Mus musculus, UniProt P24822); assay: PubChem AID 488874; format: functional
Intestinal-type alkaline phosphatase (Mus musculus, UniProt P24822), sequence (P24822 whole entry): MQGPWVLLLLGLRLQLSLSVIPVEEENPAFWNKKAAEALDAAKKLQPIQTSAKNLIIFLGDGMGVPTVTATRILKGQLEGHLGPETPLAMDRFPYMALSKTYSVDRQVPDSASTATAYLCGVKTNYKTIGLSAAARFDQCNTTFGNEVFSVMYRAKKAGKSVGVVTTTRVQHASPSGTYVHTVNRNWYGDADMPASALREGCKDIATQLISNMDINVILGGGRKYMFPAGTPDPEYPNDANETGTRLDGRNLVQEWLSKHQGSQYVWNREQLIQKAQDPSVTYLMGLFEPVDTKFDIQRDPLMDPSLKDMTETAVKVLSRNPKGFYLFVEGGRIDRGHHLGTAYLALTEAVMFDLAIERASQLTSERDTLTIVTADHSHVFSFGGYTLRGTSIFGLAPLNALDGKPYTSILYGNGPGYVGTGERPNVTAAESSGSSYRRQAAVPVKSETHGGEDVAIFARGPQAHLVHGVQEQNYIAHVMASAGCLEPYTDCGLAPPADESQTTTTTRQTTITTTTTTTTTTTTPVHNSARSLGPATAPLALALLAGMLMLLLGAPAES

[22] = target: FAD-linked sulfhydryl oxidase ALR (Homo sapiens, UniProt P55789); assay: inhibitors of human ALR sulfhydryl oxidase, dose response, biochemical, H2O2 detection, luminescence, cherry-pick (AID 493248)
FAD-linked sulfhydryl oxidase ALR, sequence (P55789 whole entry): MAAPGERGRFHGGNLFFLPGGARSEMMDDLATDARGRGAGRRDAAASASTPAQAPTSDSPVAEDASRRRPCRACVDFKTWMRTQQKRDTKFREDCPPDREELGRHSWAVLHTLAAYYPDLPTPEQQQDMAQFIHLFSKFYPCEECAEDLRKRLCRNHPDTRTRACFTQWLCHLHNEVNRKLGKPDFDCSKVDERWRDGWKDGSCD

[23] = target: T3, Mannose-6-phosphate isomerase (Homo sapiens, UniProt P34949); assay: inhibitors of human PMI, primary screen, biochemical, fluorescence intensity, coupled assay (AID 1209)
T3 sequence (P34949 whole entry): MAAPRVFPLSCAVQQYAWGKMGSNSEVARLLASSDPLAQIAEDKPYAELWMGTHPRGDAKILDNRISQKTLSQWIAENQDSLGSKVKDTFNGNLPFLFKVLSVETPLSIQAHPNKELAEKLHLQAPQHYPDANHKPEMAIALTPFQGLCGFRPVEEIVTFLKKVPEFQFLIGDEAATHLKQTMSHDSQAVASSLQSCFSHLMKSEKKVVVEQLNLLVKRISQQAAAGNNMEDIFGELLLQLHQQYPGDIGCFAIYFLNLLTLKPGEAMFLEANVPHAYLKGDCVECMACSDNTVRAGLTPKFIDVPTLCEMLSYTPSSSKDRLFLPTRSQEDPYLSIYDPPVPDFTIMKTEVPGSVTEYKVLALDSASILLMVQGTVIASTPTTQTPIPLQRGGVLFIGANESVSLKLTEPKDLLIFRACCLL

[24] = target: T4, Rac GTPase-activating protein 1 (Homo sapiens, UniProt Q9H0H5); assay: MgcRacGAP GTPase-activating activity inhibitors, confirmation, biochemical, ADP Hunter fluorescence, primary and confirmatory (AID 624330); format: functional
T4 sequence (Q9H0H5 whole entry): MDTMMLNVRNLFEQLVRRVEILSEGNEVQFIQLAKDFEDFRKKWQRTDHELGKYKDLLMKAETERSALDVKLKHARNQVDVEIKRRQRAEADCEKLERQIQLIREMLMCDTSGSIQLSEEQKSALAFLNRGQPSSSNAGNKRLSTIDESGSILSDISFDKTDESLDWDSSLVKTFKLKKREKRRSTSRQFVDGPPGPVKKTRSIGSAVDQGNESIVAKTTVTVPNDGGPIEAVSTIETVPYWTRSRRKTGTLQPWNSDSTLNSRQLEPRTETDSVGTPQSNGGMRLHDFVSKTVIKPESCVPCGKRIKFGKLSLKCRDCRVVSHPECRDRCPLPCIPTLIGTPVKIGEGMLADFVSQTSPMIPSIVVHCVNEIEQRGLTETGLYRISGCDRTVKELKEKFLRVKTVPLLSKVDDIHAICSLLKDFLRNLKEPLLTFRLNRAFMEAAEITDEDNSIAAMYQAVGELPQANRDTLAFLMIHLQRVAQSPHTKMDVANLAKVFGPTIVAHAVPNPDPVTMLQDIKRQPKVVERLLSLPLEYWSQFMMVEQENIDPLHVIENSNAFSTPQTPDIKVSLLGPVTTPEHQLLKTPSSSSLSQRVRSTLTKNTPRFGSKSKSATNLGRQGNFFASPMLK

cells [25] = format: functional, cell-based; remark: listed apart in the source
[26] = target: T2, Intestinal-type alkaline phosphatase; assay: human intestinal alkaline phosphatase activators, dose response, biochemical, luminescence, uHTS hits (AID 463120); format: functional
[27] = target: T5, Alkaline phosphatase, tissue-nonspecific isozyme (Homo sapiens, UniProt P05186); assay: TNAP enzyme activators, dose response, selectivity assay for human IAP activator project, biochemical, TNAP isozyme, human IAP uHTS hits (AID 488886); format: functional;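 also: potency of compounds raising TNAP activity as a selectivity check on IAP activators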
T5 sequence (P05186 whole entry): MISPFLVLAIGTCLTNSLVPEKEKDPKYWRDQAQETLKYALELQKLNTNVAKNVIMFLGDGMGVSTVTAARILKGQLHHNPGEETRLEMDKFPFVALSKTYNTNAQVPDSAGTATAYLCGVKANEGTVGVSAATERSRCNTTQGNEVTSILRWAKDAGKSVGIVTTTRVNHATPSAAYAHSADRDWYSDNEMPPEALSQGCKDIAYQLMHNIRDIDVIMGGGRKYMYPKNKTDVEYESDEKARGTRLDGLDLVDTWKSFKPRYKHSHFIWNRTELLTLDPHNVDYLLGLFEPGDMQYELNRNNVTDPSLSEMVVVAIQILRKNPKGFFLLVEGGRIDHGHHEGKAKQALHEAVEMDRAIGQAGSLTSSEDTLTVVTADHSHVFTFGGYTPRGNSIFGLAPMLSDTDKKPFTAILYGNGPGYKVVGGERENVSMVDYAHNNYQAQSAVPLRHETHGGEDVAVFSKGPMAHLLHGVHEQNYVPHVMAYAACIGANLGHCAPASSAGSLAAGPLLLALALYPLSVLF

[28] = target: T3, Mannose-6-phosphate isomerase; assay: human PMI inhibitors, high substrate, primary screen, biochemical, fluorescence intensity, high mannose 6-phosphate (AID 1220)
[29] = Luminescence Cell-Based Dose Response HTS to Identify Inhibitors of 5'UTR Stem-Loop Driven Prion Protein mRNA Translation in H4 Neuroglioblastoma Cells. [Related pubchem assays: 1827 (Project Summary), 1813 (Primary HTS)]; format: functional
[30] = cytotoxicity in HEK-293T cells, dose response, cytotoxicity control for BCR NF-kB inhibitor project, luminescence, B-cell screen hits (AID 489021); format: functional, cell-based;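 also: HEK-293T cells carrying an NF-kB luciferase reporter; cells exposed to compound for about 14 hours before viability readout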

## COc1ccccc1NC(=O)COc1cccc2c1CCNC2=O
Cells [1]
  IC50: 28.8 µM (active)
[2]
  CC50: 39.1 µM (active)
H9c2
  IC50: 8.7 µM (active)

## CCCCCC(=O)N[C@@H](c1ccccc1)[C@@H](O)C(=O)O[C@H]1C[C@@]2(O)[C@@H](OC(=O)c3ccccc3)C3[C@](C)(C(=O)[C@H](OC(C)=O)C(=C1C)C2(C)C)[C@@H](O)C[C@H]1OC[C@@]31OC(C)=O (stereo not given in full)
[3]
  EC50: 0.229 µM (active)
[4]
  EC50: < 0.1 µM (active)
[5]
  IC50: > 80 µM (inactive)
[6]
  IC50: 0.0618 µM (active)
Cells [7]
  EC50: 0.253 µM (active)
[8]
  EC50: < 0.1 µM (active)
[9]
  EC50: 0.402 µM (active)

## CC(C)C[C@H]1C(=O)N2CCC[C@H]2[C@]2(O)O[C@](NC(=O)C3C=C4c5cccc6[nH]c(Br)c(c56)C[C@H]4N(C)C3)(C(C)C)C(=O)N12 (stereo not given in full)
[10]
  CC50: > 40 µM (active)
[11]
  IC50: > 100 µM (active)
Mu-type opioid receptor
  EC50: 92.5 µM (inactive)
[12]
  EC50: 0.0038 µM (active)

## CCC(C)[C@H](NC(=O)OC(C)(C)C)C(=O)N/N=C/c1ccc2cc(OC)ccc2n1 (stereo not given in full)
Cells [1]
  IC50: 39 µM (active)
[2]
  CC50: 36.2 µM (active)

## Cc1ccc(-c2cc(C(F)F)n3ncc(C(=O)Nc4c(C)nn(Cc5c(Cl)cccc5Cl)c4C)c3n2)cc1
Vero
  CC50: > 100 µM (active)
Cytochrome P450 3A4
  AC50: inconclusive
Cytochrome P450 2C19
  AC50: 7.94 µM (inconclusive)

## CCc1cc(C(=O)O)c(NC(=O)c2cc(OC)c(OC)c(OC)c2)s1
[13]
  IC50: 29.2 µM (active)

## Nc1ccc(Br)c2c1C(=O)c1ccccc1C2=O
Ephrin type-A receptor 4
  IC50: 13.5 µM (active)

## CN1CCN(CC(C)(C)NS(=O)(=O)c2ccc(Cl)cc2)CC1
[14]
  EC50: > 60 µM (not active)
Cells [15]
  EC50: 0.203 µM (active)
[16]
  EC50: < 0.1 µM (active)

## COCCn1c(-c2ccccc2)cnc1SCC(=O)Nc1cccc2ccccc12
[13]
  IC50: 27.4 µM (active)

## Cc1cc(C)n2c(SC/C(O)=C(\C#N)c3nc4ccccc4[nH]3)nnc2n1
[17]
  IC50: 5.01 µM (active)
Genome polyprotein
  IC50: > 49.8 µM (not active)
[18]
  IC50: 1.15 µM (active)

## CCn1c(C)nc2cc(C(=O)N/N=C/c3cccc(O)c3O)ccc21
INS1
  AC50: 2.79 µM (active)
Cells [19]
  EC50: 10.9 µM (active)
[20]
  EC50: 9.71 µM (active)
[21]
  IC50: 44 µM (active)
[22]
  AC50: 3.82 µM (active)
[23]
  IC50: > 50 µM (not active)
[24]
  IC50: 119 µM (active)
Cells [25]
  EC50: > 350 µM (not active)
[26]
  EC50: 6.34 µM (active)
[27]
  EC50: 11 µM (active)
[28]
  IC50: > 50 µM (not active)

## Cc1cc(C(=O)N/N=C2\CC(=O)c3ccccc32)c(C)n1-c1ccc(F)cc1
Genome polyprotein
  IC50: > 49.8 µM (not active)

## CCOc1ccc(-c2cc(CCCC(=O)NCc3ccco3)no2)cc1
[3]
  EC50: 1.22 µM (active)
[4]
  EC50: < 0.1 µM (active)
[29]
  EC50: 17.4 µM (active)
Cells [7]
  EC50: 2.78 µM (active)
[8]
  EC50: 14.5 µM (active)
[9]
  EC50: 1.87 µM (active)
[30]
  IC50: > 80 µM (inactive)

## CN(C)CCCCCN(C)Cc1cc2ccccc2o1
[14]
  EC50: 16.4 µM (active)
Cells [15]
  EC50: 0.025 µM (active)
[16]
  EC50: < 0.1 µM (active)
